Test results taken from PubChem BioAssay (NCI).
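Dose response: 5 concentrations. Exposure: 48 h. Format: 96-well plates. Endpoint: linear interpolation; highest concentration if not reached. GI50 = concentration required for 50% inhibition of growth. At the TGI there is no net growth.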

What was measured:
Assay in all cases: NCI anticancer screen, dose series, 48 h
LOX IMVI melanoma = test system: LOX IMVI melanoma
NCI-H23 lung = test system: NCI-H23 lung
KM12 colon = test system: KM12 colon
SF-268 CNS = test system: SF-268 CNS
T-47D breast = test system: T-47D breast
NCI-H460 lung = test system: NCI-H460 lung
HOP-62 NSCLC = test system: HOP-62 NSCLC
SF-295 CNS = test system: SF-295 CNS
PC-3 prostate = test system: PC-3 prostate
RPMI-8226 leukemia = test system: RPMI-8226 leukemia
OVCAR-8 ovarian = test system: OVCAR-8 ovarian
SN12C renal = test system: SN12C renal
HCC-2998 colon = test system: HCC-2998 colon
UO-31 renal = test system: UO-31 renal
HS 578T breast = test system: HS 578T breast
COLO 205 colon = test system: COLO 205 colon
TK-10 renal = test system: TK-10 renal
MOLT-4 leukemia = test system: MOLT-4 leukemia
MDA-MB-435 = test system: MDA-MB-435
786-0 renal = test system: 786-0 renal
NCI-H226 lung = test system: NCI-H226 lung
EKVX NSCLC = test system: EKVX NSCLC
A549 NSCLC = test system: A549 NSCLC
HOP-92 NSCLC = test system: HOP-92 NSCLC
HL-60(TB) leukemia = test system: HL-60(TB) leukemia
RXF 393 renal = test system: RXF 393 renal
SR leukemia = test system: SR leukemia
SK-OV-3 ovarian = test system: SK-OV-3 ovarian
HCT-15 colon = test system: HCT-15 colon
U251 CNS = test system: U251 CNS
UACC-62 melanoma = test system: UACC-62 melanoma
MCF7 breast = test system: MCF7 breast
MDA-MB-231 breast = test system: MDA-MB-231 breast
K-562 leukemia = test system: K-562 leukemia
MALME-3M melanoma = test system: MALME-3M melanoma
SK-MEL-28 melanoma = test system: SK-MEL-28 melanoma
OVCAR-4 ovarian = test system: OVCAR-4 ovarian
ACHN renal = test system: ACHN renal
CCRF-CEM leukemia = test system: CCRF-CEM leukemia
NCI/ADR-RES ovarian = test system: NCI/ADR-RES ovarian
HT29 colon = test system: HT29 colon
HCT-116 colon = test system: HCT-116 colon
IGROV1 ovarian = test system: IGROV1 ovarian
SNB-19 CNS = test system: SNB-19 CNS
UACC-257 melanoma = test system: UACC-257 melanoma
SW-620 colon = test system: SW-620 colon
NCI-H522 lung = test system: NCI-H522 lung
A498 renal = test system: A498 renal
SK-MEL-5 melanoma = test system: SK-MEL-5 melanoma
BT-549 breast = test system: BT-549 breast
SF-539 CNS = test system: SF-539 CNS
OVCAR-5 ovarian = test system: OVCAR-5 ovarian
M14 melanoma = test system: M14 melanoma
DU-145 prostate = test system: DU-145 prostate
SNB-75 CNS = test system: SNB-75 CNS
OVCAR-3 ovarian = test system: OVCAR-3 ovarian
SK-MEL-2 melanoma = test system: SK-MEL-2 melanoma
CAKI-1 renal = test system: CAKI-1 renal

N=C(N)N=Nc1ccc(NN=C(N)N)c2c1ncc1c2nc2sccn21
GI50 (LOX IMVI melanoma): 21.1 µM | TGI (LOX IMVI melanoma): > 100 µM | GI50 (NCI-H23 lung): 32.1 µM | TGI (NCI-H23 lung): > 100 µM | GI50 (KM12 colon): 21.9 µM | TGI (KM12 colon): > 100 µM | GI50 (SF-268 CNS): 10.7 µM | TGI (SF-268 CNS): 35.9 µM | GI50 (T-47D breast): > 100 µM | TGI (T-47D breast): > 100 µM | GI50 (NCI-H460 lung): 24 µM | TGI (NCI-H460 lung): > 100 µM | GI50 (HOP-62 NSCLC): 29.6 µM | TGI (HOP-62 NSCLC): > 100 µM | GI50 (SF-295 CNS): 32 µM | TGI (SF-295 CNS): > 100 µM | GI50 (PC-3 prostate): 27 µM | TGI (PC-3 prostate): 99.5 µM | GI50 (RPMI-8226 leukemia): 14 µM | TGI (RPMI-8226 leukemia): 91.2 µM | GI50 (OVCAR-8 ovarian): 27.3 µM | TGI (OVCAR-8 ovarian): > 100 µM | GI50 (SN12C renal): 36.4 µM | TGI (SN12C renal): > 100 µM | GI50 (HCC-2998 colon): 65.7 µM | TGI (HCC-2998 colon): > 100 µM | GI50 (UO-31 renal): 23.7 µM | TGI (UO-31 renal): > 100 µM | GI50 (HS 578T breast): 18.9 µM | TGI (HS 578T breast): 63.4 µM | GI50 (COLO 205 colon): 40.6 µM | TGI (COLO 205 colon): > 100 µM | GI50 (TK-10 renal): 18 µM | TGI (TK-10 renal): 35.5 µM | GI50 (MOLT-4 leukemia): 80.3 µM | TGI (MOLT-4 leukemia): > 100 µM | GI50 (MDA-MB-435): 19.5 µM | TGI (MDA-MB-435): 52.1 µM | GI50 (786-0 renal): 29.2 µM | TGI (786-0 renal): > 100 µM | GI50 (NCI-H226 lung): 32.3 µM | TGI (NCI-H226 lung): > 100 µM | GI50 (EKVX NSCLC): 21.6 µM | TGI (EKVX NSCLC): 45.8 µM | GI50 (A549 NSCLC): 42.7 µM | TGI (A549 NSCLC): > 100 µM | GI50 (HOP-92 NSCLC): 25.5 µM | TGI (HOP-92 NSCLC): 65.4 µM | GI50 (HL-60(TB) leukemia): 73.6 µM | TGI (HL-60(TB) leukemia): > 100 µM | GI50 (RXF 393 renal): 8.98 µM | TGI (RXF 393 renal): 34.6 µM | GI50 (SR leukemia): > 100 µM | TGI (SR leukemia): > 100 µM | GI50 (SK-OV-3 ovarian): 93.4 µM | TGI (SK-OV-3 ovarian): > 100 µM | GI50 (HCT-15 colon): 16.7 µM | TGI (HCT-15 colon): 59.3 µM | GI50 (U251 CNS): 23.2 µM | TGI (U251 CNS): > 100 µM | GI50 (UACC-62 melanoma): 21.3 µM | TGI (UACC-62 melanoma): 57.2 µM | GI50 (MCF7 breast): 23 µM | TGI (MCF7 breast): > 100 µM | GI50 (MDA-MB-231 breast): 33 µM | TGI (MDA-MB-231 breast): 66.6 µM | GI50 (K-562 leukemia): 31.4 µM | TGI (K-562 leukemia): > 100 µM | GI50 (MALME-3M melanoma): 21.9 µM | TGI (MALME-3M melanoma): 45.9 µM | GI50 (SK-MEL-28 melanoma): 30.6 µM | TGI (SK-MEL-28 melanoma): 95 µM | GI50 (OVCAR-4 ovarian): 22.6 µM | TGI (OVCAR-4 ovarian): 74.2 µM | GI50 (ACHN renal): 22.3 µM | TGI (ACHN renal): 51.3 µM | GI50 (CCRF-CEM leukemia): 20.8 µM | TGI (CCRF-CEM leukemia): > 100 µM | GI50 (NCI/ADR-RES ovarian): 28.6 µM | TGI (NCI/ADR-RES ovarian): > 100 µM | GI50 (HT29 colon): 55.6 µM | TGI (HT29 colon): > 100 µM | GI50 (HCT-116 colon): 25.8 µM | TGI (HCT-116 colon): > 100 µM | GI50 (IGROV1 ovarian): 8.7 µM | TGI (IGROV1 ovarian): > 100 µM | GI50 (SNB-19 CNS): > 100 µM | TGI (SNB-19 CNS): > 100 µM | GI50 (UACC-257 melanoma): 18.6 µM | TGI (UACC-257 melanoma): 40.6 µM | GI50 (SW-620 colon): 23.9 µM | TGI (SW-620 colon): 67.8 µM | GI50 (NCI-H522 lung): 22.1 µM | TGI (NCI-H522 lung): > 100 µM | GI50 (A498 renal): 24.2 µM | TGI (A498 renal): 80 µM | GI50 (SK-MEL-5 melanoma): 15.7 µM | TGI (SK-MEL-5 melanoma): 37.7 µM | GI50 (BT-549 breast): 16.5 µM | TGI (BT-549 breast): 32.9 µM | GI50 (SF-539 CNS): 21 µM | TGI (SF-539 CNS): 94.8 µM | GI50 (OVCAR-5 ovarian): 27.8 µM | TGI (OVCAR-5 ovarian): 72.1 µM | GI50 (M14 melanoma): 22.9 µM | TGI (M14 melanoma): 80 µM | GI50 (DU-145 prostate): 15.3 µM | TGI (DU-145 prostate): 44.3 µM | GI50 (SNB-75 CNS): 25.9 µM | TGI (SNB-75 CNS): > 100 µM | GI50 (OVCAR-3 ovarian): 18.8 µM | TGI (OVCAR-3 ovarian): > 100 µM

CCN(CC)C(=O)C[n+]1c2ccccc2n2cc(N)ccc21
TGI (LOX IMVI melanoma): > 100 µM | TGI (NCI-H23 lung): > 100 µM | TGI (KM12 colon): > 100 µM | TGI (SF-268 CNS): > 100 µM | TGI (T-47D breast): > 100 µM | TGI (NCI-H460 lung): > 100 µM | TGI (HOP-62 NSCLC): > 100 µM | TGI (SF-295 CNS): > 100 µM | TGI (PC-3 prostate): > 100 µM | TGI (RPMI-8226 leukemia): > 100 µM | TGI (OVCAR-8 ovarian): > 100 µM | TGI (HCC-2998 colon): > 100 µM | TGI (UO-31 renal): > 100 µM | TGI (HS 578T breast): > 100 µM | TGI (COLO 205 colon): > 100 µM | TGI (TK-10 renal): > 100 µM | TGI (MOLT-4 leukemia): > 100 µM | TGI (MDA-MB-435): > 100 µM | TGI (786-0 renal): > 100 µM | TGI (NCI-H226 lung): > 100 µM | TGI (EKVX NSCLC): > 100 µM | TGI (A549 NSCLC): > 100 µM | TGI (HOP-92 NSCLC): > 100 µM | TGI (SK-MEL-2 melanoma): > 100 µM | TGI (HL-60(TB) leukemia): > 100 µM | TGI (RXF 393 renal): > 100 µM | TGI (SR leukemia): > 100 µM | TGI (SK-OV-3 ovarian): > 100 µM | TGI (HCT-15 colon): > 100 µM | TGI (U251 CNS): > 100 µM | TGI (CAKI-1 renal): > 100 µM | TGI (UACC-62 melanoma): > 100 µM | TGI (MCF7 breast): > 100 µM | TGI (MDA-MB-231 breast): > 100 µM | TGI (K-562 leukemia): > 100 µM | TGI (MALME-3M melanoma): > 100 µM | TGI (SK-MEL-28 melanoma): > 100 µM | TGI (OVCAR-4 ovarian): > 100 µM | TGI (ACHN renal): > 100 µM | TGI (CCRF-CEM leukemia): > 100 µM | TGI (NCI/ADR-RES ovarian): > 100 µM | TGI (HT29 colon): > 100 µM | TGI (HCT-116 colon): > 100 µM | TGI (IGROV1 ovarian): > 100 µM | TGI (SNB-19 CNS): > 100 µM | TGI (UACC-257 melanoma): > 100 µM | TGI (SW-620 colon): > 100 µM | TGI (A498 renal): > 100 µM | TGI (SK-MEL-5 melanoma): > 100 µM | TGI (BT-549 breast): > 100 µM | TGI (SF-539 CNS): > 100 µM | TGI (OVCAR-5 ovarian): > 100 µM | TGI (M14 melanoma): > 100 µM | TGI (DU-145 prostate): > 100 µM | TGI (SNB-75 CNS): > 100 µM | TGI (OVCAR-3 ovarian): > 100 µM
